# Test results taken from US11279701B2, “Immunomodulators and immunomodulator conjugates” (REGENTS OF THE UNIVERSITY OF MINNESOTA, priority 2016, dated 2022).
# How the values were obtained:
# [1] = molecular target: T1, human TLR-8 (Homo sapiens, UniProt Q9NR97); experiment: TLR7/8-NF-κB Reporter Assay (HEK SEAP Reporter Assay), HEK-TLR-8 cells; assay type: cell-based; details: HEK cells stably transfected with human TLR-8 and NF-κB-responsive SEAP gene, 24 h
# T1 construct: host or cells: HEK cells stably transfected with human TLR-8 and an NF-κB-responsive SEAP reporter (HEK-TLR-8)
# T1 sequence (Q9NR97 27-1041): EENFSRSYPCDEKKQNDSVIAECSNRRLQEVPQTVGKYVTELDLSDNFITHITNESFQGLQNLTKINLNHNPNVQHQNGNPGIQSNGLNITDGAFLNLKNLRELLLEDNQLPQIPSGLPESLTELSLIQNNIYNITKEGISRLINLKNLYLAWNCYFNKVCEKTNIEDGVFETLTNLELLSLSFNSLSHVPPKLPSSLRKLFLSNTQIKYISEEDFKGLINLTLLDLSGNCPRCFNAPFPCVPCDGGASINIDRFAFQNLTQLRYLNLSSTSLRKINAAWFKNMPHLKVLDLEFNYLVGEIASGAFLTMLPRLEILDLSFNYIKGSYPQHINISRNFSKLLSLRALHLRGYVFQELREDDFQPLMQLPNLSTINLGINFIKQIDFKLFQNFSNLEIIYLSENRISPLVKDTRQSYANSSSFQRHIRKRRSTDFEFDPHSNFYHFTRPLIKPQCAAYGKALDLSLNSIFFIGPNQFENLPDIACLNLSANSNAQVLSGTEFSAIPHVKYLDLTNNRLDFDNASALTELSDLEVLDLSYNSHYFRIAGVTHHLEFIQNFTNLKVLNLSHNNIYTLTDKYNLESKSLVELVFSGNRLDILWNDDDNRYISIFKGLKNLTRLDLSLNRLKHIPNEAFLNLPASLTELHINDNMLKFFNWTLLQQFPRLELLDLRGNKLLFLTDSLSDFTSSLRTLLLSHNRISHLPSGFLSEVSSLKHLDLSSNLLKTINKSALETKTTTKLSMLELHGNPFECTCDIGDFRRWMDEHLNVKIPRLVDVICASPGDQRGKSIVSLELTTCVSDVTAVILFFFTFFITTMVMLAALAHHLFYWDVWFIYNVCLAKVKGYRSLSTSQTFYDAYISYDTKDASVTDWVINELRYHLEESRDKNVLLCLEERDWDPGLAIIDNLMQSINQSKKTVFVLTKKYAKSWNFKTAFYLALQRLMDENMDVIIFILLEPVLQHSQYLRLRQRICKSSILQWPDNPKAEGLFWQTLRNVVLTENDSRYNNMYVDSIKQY
# [2] = molecular target: T2, human TLR-7 (Homo sapiens, UniProt Q9NYK1); experiment: TLR7/8-NF-κB Reporter Assay (HEK SEAP Reporter Assay), HEK-TLR-7 cells; assay type: cell-based; details: HEK cells stably transfected with human TLR-7 and NF-κB-responsive SEAP gene, 24 h
# T2 construct: host or cells: HEK cells stably transfected with human TLR-7 and an NF-κB-responsive SEAP reporter (HEK-TLR-7)
# T2 sequence (Q9NYK1 27-1049): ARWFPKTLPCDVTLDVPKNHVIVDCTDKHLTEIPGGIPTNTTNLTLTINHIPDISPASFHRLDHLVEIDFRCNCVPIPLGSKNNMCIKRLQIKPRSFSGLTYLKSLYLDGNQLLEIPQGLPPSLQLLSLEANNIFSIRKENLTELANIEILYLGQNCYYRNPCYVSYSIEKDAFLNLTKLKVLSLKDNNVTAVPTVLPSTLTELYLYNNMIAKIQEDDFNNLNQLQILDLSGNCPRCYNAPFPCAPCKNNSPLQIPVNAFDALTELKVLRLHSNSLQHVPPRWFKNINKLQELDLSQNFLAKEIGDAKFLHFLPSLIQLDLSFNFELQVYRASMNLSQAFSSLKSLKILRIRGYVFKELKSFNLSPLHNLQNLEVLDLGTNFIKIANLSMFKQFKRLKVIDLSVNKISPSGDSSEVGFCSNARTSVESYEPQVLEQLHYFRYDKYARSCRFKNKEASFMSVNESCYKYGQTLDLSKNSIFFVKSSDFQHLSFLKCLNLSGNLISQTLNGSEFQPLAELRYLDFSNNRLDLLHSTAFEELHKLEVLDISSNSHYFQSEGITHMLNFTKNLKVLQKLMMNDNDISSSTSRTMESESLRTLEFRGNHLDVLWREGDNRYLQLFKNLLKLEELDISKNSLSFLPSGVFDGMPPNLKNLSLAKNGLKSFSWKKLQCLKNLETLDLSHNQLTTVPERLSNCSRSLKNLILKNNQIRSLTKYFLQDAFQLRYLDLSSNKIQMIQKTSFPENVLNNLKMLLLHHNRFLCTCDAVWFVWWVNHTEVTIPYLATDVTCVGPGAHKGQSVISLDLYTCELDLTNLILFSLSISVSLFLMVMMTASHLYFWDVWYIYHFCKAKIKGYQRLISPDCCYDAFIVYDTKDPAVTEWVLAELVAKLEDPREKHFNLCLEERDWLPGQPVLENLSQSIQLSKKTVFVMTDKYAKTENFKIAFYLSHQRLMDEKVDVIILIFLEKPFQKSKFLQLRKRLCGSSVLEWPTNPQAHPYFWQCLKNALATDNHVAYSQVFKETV
EC50 [1] [nM],EC50 [2] [nM],Compound
290,1530,"4-amino-2-butyl-1-(2-hydroxypropyl)-7-benzenesulphonyl-1H-imidazo[4,5-c]quinoline [Compound 548]"
240,420,CCCCc1nc2c(N)nc3cc(C(=O)OC)ccc3c2n1CCCNS(=O)(=O)c1ccccc1 [Compound 544]
–,189000,CCCCc1nc2c(N)nc3cc(C(=O)OC)ccc3c2n1Cc1ccc(C(=O)O)cc1 [Compound 556]
–,2900,CCCCc1nc2c(N)nc3cc(C(=O)OC)ccc3c2n1CCSC [Compound 563]
–,3800,CCCCc1nc2c(N)nc3cc(C(=O)OC)ccc3c2n1CCCSC [Compound 564]
–,6700,CCCCc1nc2c(N)nc3cc(C(=O)OC)ccc3c2n1CCSCC [Compound 565]
–,3300,CCCCc1nc2c(N)nc3cc(C(=O)OC)ccc3c2n1CC(=O)OC [Compound 566]
–,3600,CCCCc1nc2c(N)nc3cc(C(=O)OC)ccc3c2n1CCC(=O)OC [Compound 567]
–,4500,CCCCc1nc2c(N)nc3cc(C(=O)OC)ccc3c2n1CCCC(=O)OC [Compound 568]
–,1740,CCCCc1nc2c(N)nc3cc(C(=O)OC)ccc3c2n1CCCCC(=O)OC [Compound 569]
–,2900,CCCCc1nc2c(N)nc3cc(C(=O)OC)ccc3c2n1CCCCCC(=O)OC [Compound 570]
66000,–,CCCCc1nc2c(N)nc3cc(C(=O)OC)ccc3c2n1CCCN [Compound 572]
3850,–,CCCCc1nc2c(N)nc3cc(C(=O)OC)ccc3c2n1CCCCN [Compound 573]
2200,600,CCCCc1nc2c(N)nc3cc(C(=O)OC)ccc3c2n1CCCCCN [Compound 574]
